According to patent US20220089592A1, “IMIDAZO[1,2-A]PYRIDINYL DERIVATIVES AS IRAK4 INHIBITORS” (priority 2019, published 2022):

target: T1, IRAK4 (Homo sapiens, UniProt Q9NWZ3); assay: 2-hour 1 mM ATP IRAK4 Biochemical assay (as above, but with 100 pM IRAK4 and 1 mM ATP); conditions: IRAK4 MSD BIOCHEMICAL (1 mM ATP) IC50 (μM), 100 pM IRAK4, 2 hours
T1 sequence (Q9NWZ3 1-460): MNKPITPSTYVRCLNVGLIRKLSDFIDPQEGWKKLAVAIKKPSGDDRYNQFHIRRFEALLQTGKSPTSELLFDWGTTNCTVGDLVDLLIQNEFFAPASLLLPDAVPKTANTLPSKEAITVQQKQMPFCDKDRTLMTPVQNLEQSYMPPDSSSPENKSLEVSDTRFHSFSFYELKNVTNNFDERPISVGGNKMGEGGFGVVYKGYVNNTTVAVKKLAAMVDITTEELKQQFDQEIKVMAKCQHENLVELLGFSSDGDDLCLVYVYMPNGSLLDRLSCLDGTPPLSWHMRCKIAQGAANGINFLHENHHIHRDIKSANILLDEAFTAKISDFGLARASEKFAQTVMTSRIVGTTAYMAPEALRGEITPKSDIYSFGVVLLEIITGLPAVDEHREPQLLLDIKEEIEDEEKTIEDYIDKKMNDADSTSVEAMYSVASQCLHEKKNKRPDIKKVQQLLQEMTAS
Description: The 2-hour 10 μM ATP Biochemical Assay employs a MesoScale Detection (MSD) format.
The activity is quenched with 11 μl of 70 mM EDTA, pH 8.
To detect the phosphorylated biotinylated peptide substrate, 30 μl of the quenched reaction mixture is added to equivalent wells of a 384 well streptavidin coated MesoScale plate (Meso Scale Discovery #L21SA-1). After a 1 hour incubation of the plate for 1 hour at room temperature with gentle mixing, the plate wells are washed 3 times with 50 mM Tris, pH 7.5, 150 mM NaCl, 0.02% Tween-20.
A 25 μl volume of 1:500 anti-P-Threonine Rabbit polyclonal Antibody plus 1:500 Goat-anti-Rabbit Sulfo Tag Antibody (Meso Scale Discovery R32AB-1) in 50 mM Tris, pH 7.5, 150 mM NaCl, 0.02% Tween-20 plus 2% BSA is then added to each well. After a 1-hour incubation of the plate for 1 hour at room temperature with gentle mixing, the plate wells are washed, 3 times with 50 mM Tris, pH 7.5, 150 mM NaCl, 0.02% Tween-20. A 40 μl volume of 2×MSD Read Buffer (Meso Scale Discovery R92TC-1) is added to each well, and the plate is read immediately in an MSD Plate Reader (Meso Scale Discovery).
The 2-hour 1 mM ATP IRAK4 Biochemical assay was performed as described above, but with 100 pM IRAK4 and 1 mM ATP.

| IC50 | SMILES |
| --- | --- |
| 0.001 µM | O=C(Nc1cn2cc(C3CCOCC3)nc2cc1OCC1CCCOC1)c1cccc(C(F)F)n1 (stereo not shown) [Example 193, 6-(difluoromethyl)-N-(7-((tetrahydro-2H-pyran-3-yl)methoxy)-2-(tetrahydro-2H-pyran-4-yl)imidazo[1,2-a]pyridin-6-yl)picolinamide] |
| 0.044 µM | COc1nc(NC(=O)c2coc(C(F)F)n2)cn2cc(C3CCOCC3)nc12 [Example 333, 2-(difluoromethyl)-N-(8-methoxy-2-(tetrahydro-2H-pyran-4-yl)imidazo[1,2-a]pyrazin-6-yl)oxazole-4-carboxamide] |
| 0.022 µM | COc1ccccc1C(=O)Nc1cn2cc(C34COC(CF)(C3)C4)nc2c(OC(C)C)n1 [Example 483, N-(2-(1-(fluoromethyl)-2-oxabicyclo[2.1.1]hexan-4-yl)-8-isopropoxyimidazo[1,2-a]pyrazin-6-yl)-2-methoxybenzamide 2,2,2-trifluoroacetate] |
| 0.036 µM | COc1ncccc1C(=O)Nc1cn2cc(C3CCOCC3)nc2c(OC)n1 [Example 458, 2-methoxy-N-(8-methoxy-2-(tetrahydro-2H-pyran-4-yl)imidazo[1,2-a]pyrazin-6-yl)nicotinamide 2,2,2-trifluoroacetate] |
| 0.011 µM | CC(C)Oc1cc2nc(C3CCOCC3)c(Cl)n2cc1NC(=O)c1cccc(C(F)F)n1 [Example 353, N-(3-chloro-7-isopropoxy-2-(tetrahydro-2H-pyran-4-yl)imidazo[1,2-a]pyridin-6-yl)-6-(difluoromethyl)picolinamide] |
| 0.005 µM | CC(C)Oc1c(NC(=O)c2ccn(C)n2)cn2cc(C34COC(C)(C3)C4)nc2c1F [Example 432, N-(8-fluoro-7-isopropoxy-2-(1-methyl-2-oxabicyclo[2.1.1]hexan-4-yl)imidazo[1,2-a]pyridin-6-yl)-1-methyl-1H-pyrazole-3-carboxamide 2,2,2-trifluoroacetate] |
| 0.012 µM | COc1ncccc1C(=O)Nc1cn2cc(C34CCC(C)(C3)OC4)nc2c(F)c1OC(C)C (stereo not shown) [Example 435, N-(8-fluoro-7-isopropoxy-2-(1-methyl-2-oxabicyclo[2.2.1]heptan-4-yl)imidazo[1,2-a]pyridin-6-yl)-2-methoxynicotinamide 2,2,2-trifluoroacetate] |
| 0.039 µM | COc1nc(NC(=O)c2cccc(C)c2F)cn2cc(C34COC(C)(C3)C4)nc12 [Example 444, 2-fluoro-N-(8-methoxy-2-(1-methyl-2-oxabicyclo[2.1.1]hexan-4-yl)imidazo[1,2-a]pyrazin-6-yl)-3-methylbenzamide] |
| 0.054 µM | COc1ccccc1C(=O)Nc1cn2cc(Cl)nc2cc1OC(C)C [Example 400, N-(2-chloro-7-isopropoxyimidazo[1,2-a]pyridin-6-yl)-2-methoxybenzamide 2,2,2-trifluoroacetate] |
| 0.01 µM | CCOc1cc(NC(=O)c2cccc(C(F)F)n2)cn2cc(C34COC(C)(C3)C4)nc12 [Example 414, 6-(difluoromethyl)-N-(8-ethoxy-2-(1-methyl-2-oxabicyclo[2.1.1]hexan-4-yl)imidazo[1,2-a]pyridin-6-yl)picolinamide 2,2,2-trifluoroacetate] |
| 0.438 µM | CCOc1cc2nc(C(C)(C)O)c(Cl)n2cc1NC(=O)c1cccc(C(F)F)n1 [Example 354, N-(3-chloro-7-ethoxy-2-(2-hydroxypropan-2-yl)imidazo[1,2-a]pyridin-6-yl)-6-(difluoromethyl)picolinamide] |
| 0.005 µM | CC(C)Oc1nc(NC(=O)c2cccc3ncnn23)cn2cc(C34COC(C)(C3)C4)nc12 [Example 480, N-(8-isopropoxy-2-(1-methyl-2-oxabicyclo[2.1.1]hexan-4-yl)imidazo[1,2-a]pyrazin-6-yl)-[1,2,4]triazolo[1,5-a]pyridine-5-carboxamide] |

| SMILES | IC50 |
| --- | --- |
| CCC(C)Oc1c(NC(=O)c2cccnc2OC)cn2cc(C34COC(C)(C3)C4)nc2c1F (stereo not shown) [Example 326, N-(7-(sec-butoxy)-8-fluoro-2-(1-methyl-2-oxabicyclo[2.1.1]hexan-4-yl)imidazo[1,2-a]pyridin-6-yl)-2-methoxynicotinamide] | 0.012 µM |
